In ChEMBL document CHEMBL5653631, “A Potent and Selective ULK1 Inhibitor Suppresses Autophagy and Sensitizes Cancer Cells to Nutrient Stress” (iScience, 2018):
One block for each molecule: values may come before it.

Experiments:
[1] = target: Protein kinase C delta type (Homo sapiens) (UniProt Q05655); assay: Inhibition of human recombinant PKCd at 500 nM in presence of ATP by radiometric assay relative to control
[2] = target: STE20-like serine/threonine-protein kinase (Homo sapiens) (UniProt Q9H2G2); assay: Inhibition of human recombinant SLK at 500 nM in presence of ATP by radiometric assay relative to control
Chain of STE20-like serine/threonine-protein kinase (Homo sapiens) (Q9H2G2 whole entry, looked up): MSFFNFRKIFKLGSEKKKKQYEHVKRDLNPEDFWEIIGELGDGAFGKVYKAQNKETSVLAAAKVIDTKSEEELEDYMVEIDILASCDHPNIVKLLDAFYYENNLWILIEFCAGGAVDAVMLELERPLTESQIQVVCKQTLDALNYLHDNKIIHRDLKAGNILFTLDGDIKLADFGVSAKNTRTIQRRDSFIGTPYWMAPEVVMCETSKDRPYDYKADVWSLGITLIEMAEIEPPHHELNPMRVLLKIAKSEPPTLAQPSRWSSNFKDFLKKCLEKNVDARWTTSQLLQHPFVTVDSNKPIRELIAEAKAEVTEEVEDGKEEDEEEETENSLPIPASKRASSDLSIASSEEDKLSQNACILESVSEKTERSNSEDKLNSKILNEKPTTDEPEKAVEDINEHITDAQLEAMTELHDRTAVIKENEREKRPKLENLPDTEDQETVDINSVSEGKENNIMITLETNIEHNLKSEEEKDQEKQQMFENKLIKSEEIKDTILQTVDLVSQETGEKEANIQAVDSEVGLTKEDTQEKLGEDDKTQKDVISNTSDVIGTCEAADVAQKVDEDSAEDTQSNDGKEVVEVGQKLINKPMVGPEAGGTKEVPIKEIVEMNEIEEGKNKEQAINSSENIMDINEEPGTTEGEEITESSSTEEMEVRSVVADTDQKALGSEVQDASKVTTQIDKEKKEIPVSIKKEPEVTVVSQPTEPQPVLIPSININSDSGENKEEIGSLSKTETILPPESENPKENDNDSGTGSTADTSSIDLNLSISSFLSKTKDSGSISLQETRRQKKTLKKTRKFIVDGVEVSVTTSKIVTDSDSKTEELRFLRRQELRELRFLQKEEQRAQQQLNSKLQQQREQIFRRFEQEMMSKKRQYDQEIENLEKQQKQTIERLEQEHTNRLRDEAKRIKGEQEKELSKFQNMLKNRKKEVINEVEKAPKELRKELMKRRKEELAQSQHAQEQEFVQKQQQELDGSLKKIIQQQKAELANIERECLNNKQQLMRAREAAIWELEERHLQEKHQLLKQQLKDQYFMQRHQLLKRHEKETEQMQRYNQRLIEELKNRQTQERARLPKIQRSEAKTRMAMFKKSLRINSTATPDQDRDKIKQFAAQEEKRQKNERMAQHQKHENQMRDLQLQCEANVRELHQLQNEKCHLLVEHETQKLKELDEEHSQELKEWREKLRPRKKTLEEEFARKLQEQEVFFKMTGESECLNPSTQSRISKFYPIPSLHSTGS

[3] = target: T1, Serine/threonine-protein kinase Nek11 (Homo sapiens) (UniProt Q8NG66); assay: Inhibition of human recombinant NEK11 at 500 nM related to control ULK1
T1 sequence (whole entry): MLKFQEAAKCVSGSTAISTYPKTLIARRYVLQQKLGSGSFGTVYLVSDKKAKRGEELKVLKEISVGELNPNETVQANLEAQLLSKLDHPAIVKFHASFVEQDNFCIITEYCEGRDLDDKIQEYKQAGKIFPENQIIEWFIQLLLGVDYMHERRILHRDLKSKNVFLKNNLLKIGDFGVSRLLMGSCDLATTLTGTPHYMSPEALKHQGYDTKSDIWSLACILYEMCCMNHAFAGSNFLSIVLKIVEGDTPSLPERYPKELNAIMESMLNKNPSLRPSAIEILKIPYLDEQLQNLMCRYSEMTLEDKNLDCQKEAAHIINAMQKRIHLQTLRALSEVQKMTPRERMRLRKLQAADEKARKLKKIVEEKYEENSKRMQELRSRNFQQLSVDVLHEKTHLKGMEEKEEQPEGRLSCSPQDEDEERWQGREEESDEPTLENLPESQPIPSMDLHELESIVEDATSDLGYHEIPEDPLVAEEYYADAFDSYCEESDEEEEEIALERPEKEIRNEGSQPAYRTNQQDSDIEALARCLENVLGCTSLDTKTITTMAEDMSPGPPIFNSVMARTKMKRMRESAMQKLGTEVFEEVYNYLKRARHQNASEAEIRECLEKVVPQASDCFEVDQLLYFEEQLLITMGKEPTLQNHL

[4] = target: Tau-tubulin kinase 2 (Homo sapiens) (UniProt Q6IQ55); assay: Inhibition of human recombinant TTBK2 at 500 nM related to control ULK1
Chain of Tau-tubulin kinase 2 (Homo sapiens) (Q6IQ55 whole entry): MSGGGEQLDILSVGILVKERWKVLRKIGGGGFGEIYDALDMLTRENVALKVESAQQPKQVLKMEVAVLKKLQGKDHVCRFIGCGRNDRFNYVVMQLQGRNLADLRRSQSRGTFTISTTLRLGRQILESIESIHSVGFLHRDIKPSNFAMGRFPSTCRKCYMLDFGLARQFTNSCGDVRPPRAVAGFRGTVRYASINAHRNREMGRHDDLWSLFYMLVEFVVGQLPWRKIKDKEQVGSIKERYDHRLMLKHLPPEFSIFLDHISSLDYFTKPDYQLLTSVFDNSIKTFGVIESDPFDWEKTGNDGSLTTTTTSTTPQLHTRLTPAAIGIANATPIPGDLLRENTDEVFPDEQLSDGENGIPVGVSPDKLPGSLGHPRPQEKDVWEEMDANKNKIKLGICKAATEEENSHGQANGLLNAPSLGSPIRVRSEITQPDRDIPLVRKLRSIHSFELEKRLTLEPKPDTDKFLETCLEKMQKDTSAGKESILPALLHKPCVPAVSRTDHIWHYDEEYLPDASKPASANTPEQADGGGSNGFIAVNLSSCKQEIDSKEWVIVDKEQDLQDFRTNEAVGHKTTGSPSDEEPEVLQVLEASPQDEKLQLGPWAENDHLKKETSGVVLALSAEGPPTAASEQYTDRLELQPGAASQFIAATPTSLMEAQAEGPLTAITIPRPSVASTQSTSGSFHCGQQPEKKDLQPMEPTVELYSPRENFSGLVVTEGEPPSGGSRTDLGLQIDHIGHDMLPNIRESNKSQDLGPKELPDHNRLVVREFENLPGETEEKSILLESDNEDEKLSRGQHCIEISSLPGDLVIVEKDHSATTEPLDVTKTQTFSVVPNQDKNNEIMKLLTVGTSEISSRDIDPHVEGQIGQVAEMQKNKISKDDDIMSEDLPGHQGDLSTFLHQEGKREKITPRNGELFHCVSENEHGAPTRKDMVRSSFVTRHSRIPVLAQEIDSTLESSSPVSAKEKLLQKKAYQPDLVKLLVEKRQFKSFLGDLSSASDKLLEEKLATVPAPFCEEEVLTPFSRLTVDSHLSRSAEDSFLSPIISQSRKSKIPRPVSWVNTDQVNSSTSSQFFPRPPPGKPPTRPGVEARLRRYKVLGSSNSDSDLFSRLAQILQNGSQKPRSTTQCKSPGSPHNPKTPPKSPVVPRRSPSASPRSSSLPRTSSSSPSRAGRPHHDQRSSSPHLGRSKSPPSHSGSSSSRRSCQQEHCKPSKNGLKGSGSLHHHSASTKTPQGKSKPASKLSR

[5] = target: Serine/threonine-protein kinase 24 (Homo sapiens) (UniProt Q9Y6E0); assay: Inhibition of human recombinant MST3 at 15 nM in presence of ATP by radiometric assay relative to control
Chain of Serine/threonine-protein kinase 24 (Homo sapiens) (Q9Y6E0 whole entry, looked up): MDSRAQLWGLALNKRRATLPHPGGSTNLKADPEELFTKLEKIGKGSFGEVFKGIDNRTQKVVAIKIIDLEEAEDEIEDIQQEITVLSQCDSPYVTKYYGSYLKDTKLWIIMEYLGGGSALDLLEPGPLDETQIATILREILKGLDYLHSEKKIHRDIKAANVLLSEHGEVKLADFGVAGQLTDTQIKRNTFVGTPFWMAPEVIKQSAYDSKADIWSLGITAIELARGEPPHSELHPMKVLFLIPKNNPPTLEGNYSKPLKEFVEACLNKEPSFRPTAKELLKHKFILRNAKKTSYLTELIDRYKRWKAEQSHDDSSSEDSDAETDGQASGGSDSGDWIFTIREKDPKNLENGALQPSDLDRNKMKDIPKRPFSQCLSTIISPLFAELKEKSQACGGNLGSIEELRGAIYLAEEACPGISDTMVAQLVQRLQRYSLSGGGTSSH

[6] = target: T2, Muscle, skeletal receptor tyrosine-protein kinase (Homo sapiens) (UniProt O15146); assay: Inhibition of human recombinant MUSK at 15 nM related to control ULK1
T2 sequence (whole entry): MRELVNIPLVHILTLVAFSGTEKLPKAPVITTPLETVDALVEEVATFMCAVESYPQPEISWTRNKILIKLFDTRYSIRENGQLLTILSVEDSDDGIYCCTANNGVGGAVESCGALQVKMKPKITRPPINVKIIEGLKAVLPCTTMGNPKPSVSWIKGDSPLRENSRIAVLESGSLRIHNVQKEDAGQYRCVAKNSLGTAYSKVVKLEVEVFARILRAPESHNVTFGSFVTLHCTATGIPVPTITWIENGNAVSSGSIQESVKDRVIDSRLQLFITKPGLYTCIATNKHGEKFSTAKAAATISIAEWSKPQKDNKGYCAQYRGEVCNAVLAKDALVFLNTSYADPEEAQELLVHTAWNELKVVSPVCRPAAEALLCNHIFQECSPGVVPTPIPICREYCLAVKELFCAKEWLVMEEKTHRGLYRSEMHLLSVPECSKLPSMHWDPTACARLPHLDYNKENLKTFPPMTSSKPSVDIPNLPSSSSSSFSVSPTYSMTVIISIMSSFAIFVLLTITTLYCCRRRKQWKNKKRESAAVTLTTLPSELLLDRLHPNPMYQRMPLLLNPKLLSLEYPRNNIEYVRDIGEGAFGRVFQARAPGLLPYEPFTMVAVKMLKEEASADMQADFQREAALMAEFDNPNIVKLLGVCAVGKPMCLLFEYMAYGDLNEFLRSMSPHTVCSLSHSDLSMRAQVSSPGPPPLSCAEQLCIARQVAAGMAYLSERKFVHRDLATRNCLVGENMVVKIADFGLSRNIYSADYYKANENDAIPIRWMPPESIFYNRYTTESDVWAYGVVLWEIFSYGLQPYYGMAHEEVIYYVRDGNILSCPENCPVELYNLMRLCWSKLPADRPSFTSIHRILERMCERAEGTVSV

[7] = target: T3, cGMP-dependent protein kinase 1 (Homo sapiens) (UniProt Q13976); assay: Inhibition of human recombinant PKG1 at 40 nM in presence of ATP by radiometric assay relative to control
T3 sequence (whole entry): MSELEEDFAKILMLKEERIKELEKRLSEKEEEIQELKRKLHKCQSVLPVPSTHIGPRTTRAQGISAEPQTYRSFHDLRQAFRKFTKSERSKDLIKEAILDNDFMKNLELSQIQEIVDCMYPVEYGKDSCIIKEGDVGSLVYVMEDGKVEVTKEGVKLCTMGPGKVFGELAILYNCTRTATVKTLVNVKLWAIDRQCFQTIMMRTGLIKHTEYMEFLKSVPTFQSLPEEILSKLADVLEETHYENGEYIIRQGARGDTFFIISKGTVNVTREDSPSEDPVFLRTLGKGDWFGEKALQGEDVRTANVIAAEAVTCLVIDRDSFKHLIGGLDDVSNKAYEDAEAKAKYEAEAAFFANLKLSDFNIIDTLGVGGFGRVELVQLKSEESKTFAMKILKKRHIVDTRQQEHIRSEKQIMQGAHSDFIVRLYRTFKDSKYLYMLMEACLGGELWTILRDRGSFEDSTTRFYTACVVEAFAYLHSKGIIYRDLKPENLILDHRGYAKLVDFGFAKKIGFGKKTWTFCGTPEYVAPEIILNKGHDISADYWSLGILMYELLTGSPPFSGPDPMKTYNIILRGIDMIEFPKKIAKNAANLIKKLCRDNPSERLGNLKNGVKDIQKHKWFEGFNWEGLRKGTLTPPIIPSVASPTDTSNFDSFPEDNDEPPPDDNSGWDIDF

[8] = target: Fibroblast growth factor receptor 1 (Homo sapiens) (UniProt P11362); assay: Inhibition of human recombinant FGFR1 at 40 nM related to control ULK1
Chain of Fibroblast growth factor receptor 1 (Homo sapiens) (P11362 22-822 limits assumed): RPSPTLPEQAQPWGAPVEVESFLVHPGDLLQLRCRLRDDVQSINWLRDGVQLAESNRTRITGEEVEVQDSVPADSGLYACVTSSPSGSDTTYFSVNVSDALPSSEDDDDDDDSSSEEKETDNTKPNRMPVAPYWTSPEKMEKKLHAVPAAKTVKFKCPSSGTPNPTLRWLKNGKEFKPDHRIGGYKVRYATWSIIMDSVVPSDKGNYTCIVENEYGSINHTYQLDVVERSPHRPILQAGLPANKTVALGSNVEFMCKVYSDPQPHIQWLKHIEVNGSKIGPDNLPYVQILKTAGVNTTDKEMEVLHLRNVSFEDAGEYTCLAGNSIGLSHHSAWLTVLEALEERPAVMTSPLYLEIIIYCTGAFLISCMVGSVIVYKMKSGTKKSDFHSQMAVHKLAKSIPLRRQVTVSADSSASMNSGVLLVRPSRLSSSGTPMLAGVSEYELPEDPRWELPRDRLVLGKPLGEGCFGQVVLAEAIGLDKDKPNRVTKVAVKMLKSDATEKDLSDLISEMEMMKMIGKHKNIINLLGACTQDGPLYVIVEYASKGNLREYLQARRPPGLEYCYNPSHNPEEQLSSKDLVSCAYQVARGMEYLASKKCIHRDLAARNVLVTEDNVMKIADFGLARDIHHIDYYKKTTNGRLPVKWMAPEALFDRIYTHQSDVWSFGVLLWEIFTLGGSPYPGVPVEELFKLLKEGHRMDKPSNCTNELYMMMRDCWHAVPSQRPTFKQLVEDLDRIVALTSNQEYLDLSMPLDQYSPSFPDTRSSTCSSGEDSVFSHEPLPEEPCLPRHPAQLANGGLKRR

[9] = target: Serine/threonine-protein kinase pim-1 (Homo sapiens) (UniProt P11309); assay: Inhibition of human recombinant PIM1 at 40 nM related to control ULK1
Chain of Serine/threonine-protein kinase pim-1 (Homo sapiens) (P11309 whole entry, looked up): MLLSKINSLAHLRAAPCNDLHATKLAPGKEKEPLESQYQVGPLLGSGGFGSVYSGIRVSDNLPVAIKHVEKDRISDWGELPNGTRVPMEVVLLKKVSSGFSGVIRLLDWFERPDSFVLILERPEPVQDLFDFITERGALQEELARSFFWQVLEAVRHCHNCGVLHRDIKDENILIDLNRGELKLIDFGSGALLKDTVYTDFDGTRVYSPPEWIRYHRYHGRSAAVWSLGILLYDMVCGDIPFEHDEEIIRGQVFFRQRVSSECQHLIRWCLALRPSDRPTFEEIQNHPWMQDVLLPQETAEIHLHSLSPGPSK

Chain of Protein kinase C delta type (Homo sapiens) (Q05655 whole entry, looked up): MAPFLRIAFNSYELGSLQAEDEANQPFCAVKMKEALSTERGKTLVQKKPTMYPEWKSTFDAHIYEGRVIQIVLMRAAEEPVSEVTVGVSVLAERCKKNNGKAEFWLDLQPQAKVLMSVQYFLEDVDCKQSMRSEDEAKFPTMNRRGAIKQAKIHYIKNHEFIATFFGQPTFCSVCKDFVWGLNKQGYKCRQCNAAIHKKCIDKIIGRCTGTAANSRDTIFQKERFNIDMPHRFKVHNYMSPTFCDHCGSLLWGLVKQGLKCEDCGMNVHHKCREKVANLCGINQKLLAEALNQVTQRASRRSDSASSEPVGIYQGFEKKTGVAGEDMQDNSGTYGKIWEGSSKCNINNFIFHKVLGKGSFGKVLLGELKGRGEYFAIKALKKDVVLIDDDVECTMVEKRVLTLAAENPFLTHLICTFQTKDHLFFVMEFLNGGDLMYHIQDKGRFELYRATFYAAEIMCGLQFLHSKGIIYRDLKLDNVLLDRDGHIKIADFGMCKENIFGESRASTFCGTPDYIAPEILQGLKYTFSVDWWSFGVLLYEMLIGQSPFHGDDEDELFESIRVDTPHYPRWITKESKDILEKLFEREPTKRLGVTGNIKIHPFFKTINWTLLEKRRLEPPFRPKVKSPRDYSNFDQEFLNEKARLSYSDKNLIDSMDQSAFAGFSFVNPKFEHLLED

inhibition [1]: 3% | inhibition [2]: 15% | fold change (FC) [3]: 0.11 | fold change (FC) [4]: 0.08
SMILES: CNC(=O)c1ccccc1Oc1nc(Nc2cc(OC)c(OC)c(OC)c2)ncc1Br

inhibition [5]: 0% | fold change (FC) [6]: 0
SMILES: CC(C)[C@H](NC(=O)c1cc(-c2cnn3cc(-c4ccc(OCCN5CCCCC5)cc4)cnc23)cs1)C(F)(F)F

inhibition [7]: 6% | fold change (FC) [8]: 0 | fold change (FC) [9]: 0.07
SMILES: O=C(N[C@@H](C1CC1)C(F)(F)F)c1cc(-c2cnn3cc(-c4ccc(F)cc4)cnc23)cs1
